Source: patent US9447044B2, “Thioaryl derivatives as GPR120 agonists” (LG LIFE SCIENCES LTD., priority 2012, dated 2016)

target: T1, hGPR120 (Homo sapiens, UniProt Q5NUL3); assay: Measurement of activity of GPR120 agonist (cell-based assay), calcium fluorescence; settings: CHO-K1 cells expressing Ga16 and hGPR120; Calcium 5 dye fluorescence; activity class
T1 construct: expressed in transfected cells; host or cells: CHO-K1
T1 sequence (Q5NUL3 1-361): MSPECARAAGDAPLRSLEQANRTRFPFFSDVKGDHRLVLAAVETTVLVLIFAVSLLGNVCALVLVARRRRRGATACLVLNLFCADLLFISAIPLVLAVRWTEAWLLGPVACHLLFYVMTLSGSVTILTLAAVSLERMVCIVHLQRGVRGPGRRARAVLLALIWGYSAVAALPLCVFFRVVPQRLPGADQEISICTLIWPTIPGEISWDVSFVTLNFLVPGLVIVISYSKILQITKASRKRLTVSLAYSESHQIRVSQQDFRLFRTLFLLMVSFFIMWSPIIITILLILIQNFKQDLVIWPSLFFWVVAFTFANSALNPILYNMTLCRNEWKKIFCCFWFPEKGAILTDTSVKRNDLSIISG
Method: CHO-K1 cells expressing Ga16 and hGPR120 were dispensed into each well of a 96-well plate (3×10^4 cells/100 μl/well) and then incubated in 5% CO2, 37° C. incubator for 18 hours. Each well was treated with 100 μl of Calcium 5 dye (Molecular Devices) solution including 2% DMSO and then incubated in 5% CO2, 37° C. incubator for 1 hour. Serially diluted GPR120 agonists were prepared to a final concentration of 0.5% DMSO in a 96-well plate. Each well was treated with 50 μl of the agonist compounds using Plexstation II, and then fluorescence was measured at Ex 485 nm, Em 525 nm.
Fluorescence increased by the serially diluted GPR120 agonists is calculated as a relative percent (%) value based on the fluorescence represented by the treatment of 0.1% DMSO only. […] The calculation of measurement was carried out by using statistical software (Prizm).
Activity is denoted based on the following criteria: A=>20 μM, B=[…], C=2˜0.2 μM, D=<0.2 μM

Compound	EC50 [nM]
CCCSc1ncccc1COc1ccc(C2CC2C(=O)O)cc1F (single isomer, unassigned) [Example 119, 2-[3-fluoro-4-(2-propylsulfanyl-pyridin-3-ylmethoxy)-phenyl]-cyclopropane carboxylic acid]	< 200
O=C(O)C1CC1c1ccc(OCc2cccnc2SC2CCC2)c(Cl)c1 (single isomer, unassigned) [Example 124, 2-[3-chloro-4-(2-cyclobutylsulfanyl-pyridin-3-ylmethoxy)-phenyl]-cyclopropane carboxylic acid]	200 to 2000
O=C(O)C1CC1c1ccc(OCc2cccnc2SC2CCC2)c(Cl)c1 (single isomer, unassigned) [Example 125, 2-[3-chloro-4-(2-cyclobutylsulfanyl-pyridin-3-ylmethoxy)-phenyl]-cyclopropane carboxylic acid]	< 200
O=C(O)C1CC1c1ccc(OCc2cccnc2SCC2CC2)c(F)c1 (single isomer, unassigned) [Example 129, 2-[4-(2-cyclopropylmethylsulfanyl-pyridin-3-ylmethoxy)-3-fluoro-phenyl]-cyclopropane carboxylic acid]	200 to 2000
O=C(O)C1CC1c1ccc(OCc2cccnc2SC2CCCC2)c(F)c1 (single isomer, unassigned) [Example 130, 2-[4-(2-cyclopentylsulfanyl-pyridin-3-ylmethoxy)-3-fluoro-phenyl]-cyclopropane carboxylic acid]	200 to 2000
CC(C)Sc1cccc(COc2ccc(C3CC3C(=O)O)cc2F)n1 (single isomer, unassigned) [Example 131, 2-[3-fluoro-4-(6-isopropylsulfanyl-pyridin-2-ylmethoxy)-phenyl]-cyclopropane carboxylic acid]	200 to 2000
O=C(O)C1CC1c1ccc(OCc2cccnc2SC2CCC2)c(F)c1 (single isomer, unassigned) [Example 133, 2-[4-(2-cyclobutylsulfanyl-pyridin-3-ylmethoxy)-3-fluoro-phenyl]-cyclopropane carboxylic acid]	200 to 2000
O=C(O)C1CC1c1ccc(OCc2cccc(SC3CCCC3)n2)c(F)c1 (single isomer, unassigned) [Example 134, 2-[4-(6-cyclopentylsulfanyl-pyridin-2-ylmethoxy)-3-fluoro-phenyl]-cyclopropane carboxylic acid]	< 200
O=C(O)C1CC1c1cc(F)c(OCc2cccnc2SCC2CC2)c(F)c1 (single isomer, unassigned) [Example 136, 2-[4-(2-cyclopropylmethylsulfanyl-pyridin-3-ylmethoxy)-3,5-difluoro-phenyl]-cyclopropane carboxylic acid]	200 to 2000
O=C(O)C1CC1c1cc(F)c(OCc2cccnc2SCC2CC2)c(F)c1 (single isomer, unassigned) [Example 137, 2-[4-(2-cyclopropylmethylsulfanyl-pyridin-3-ylmethoxy)-3,5-difluoro-phenyl]-cyclopropane carboxylic acid]	< 200
CCCSc1ncccc1COc1ccc(C2CC2C(=O)O)cc1F (single isomer, unassigned) [Example 163, 2-[3-fluoro-4-(2-propylsulfanyl-pyridin-3-ylmethoxy)-phenyl]-cyclopropane carboxylic acid]	< 200
O=C(O)C1CC1c1ccc(OCc2cccnc2SC2CCCC2)c(F)c1 (single isomer, unassigned) [Example 164, 2-[4-(2-cyclopentylsulfanyl-pyridin-3-ylmethoxy)-3-fluoro-phenyl]-cyclopropane carboxylic acid]	< 200
O=C(O)C1CC1c1ccc(OCc2cccnc2SCC2CC2)c(F)c1 (single isomer, unassigned) [Example 165, 2-[4-(2-cyclopropylmethylsulfanyl-pyridin-3-ylmethoxy)-3-fluoro-phenyl]-cyclopropane carboxylic acid]	< 200
CC(C)Sc1cccc(COc2ccc(C3CC3C(=O)O)cc2F)n1 (single isomer, unassigned) [Example 166, 2-[3-fluoro-4-(6-isopropylsulfanyl-pyridin-2-ylmethoxy)-phenyl]-cyclopropane carboxylic acid]	< 200
O=C(O)C1CC1c1ccc(OCc2cccc(SC3CCCC3)n2)c(F)c1 (single isomer, unassigned) [Example 168, 2-[4-(6-cyclopentylsulfanyl-pyridin-2-ylmethoxy)-3-fluoro-phenyl]-cyclopropane carboxylic acid]	< 200
O=C(O)C1CC1c1ccc(OCc2cccnc2SC2CCC2)c(F)c1 (single isomer, unassigned) [Example 169, 2-[4-(2-cyclobutylsulfanyl-pyridin-3-ylmethoxy)-3-fluoro-phenyl]-cyclopropane carboxylic acid]	< 200

Compound	EC50 [nM]
CC(C)Sc1ncccc1COc1c(F)cc(CCC(=O)O)cc1F [Example 1, 3-[3,5-difluoro-4-(2-isopropylsulfanyl-pyridin-3-ylmethoxy)-phenyl]-propionic acid]	< 200
CC(C)Sc1ncccc1COc1ccc(CCC(=O)O)cc1 [Example 2, 3-[4-(2-isopropylsulfanyl-pyridin-3-ylmethoxy)-phenyl]-propionic acid]	< 200
Cc1cnc(SC(C)C)c(COc2ccc(CC(C)C(=O)O)cc2)c1 (stereo not shown) [Example 3, 3-[4-(2-isopropylsulfanyl-5-methyl-pyridin-3-ylmethoxy)-phenyl]-2-methyl-propionic acid]	200 to 2000
CC(C)Sc1ncccc1COc1ccc(CC(C)C(=O)O)cc1 (stereo not shown) [Example 4, 3-[4-(2-isopropylsulfanyl-pyridin-3-ylmethoxy)-phenyl]-2-methyl-propionic acid]	200 to 2000
Cc1cnc(SC(C)C)c(COc2ccc(CCC(=O)O)cc2)c1 [Example 5, 3-[4-(2-isopropylsulfanyl-5-methyl-pyridin-3-ylmethoxy)-phenyl]-propionic acid]	< 200
CC(C)Sc1ncccc1COc1ccc(CCC(=O)O)cc1F [Example 6, 3-[3-fluoro-4-(2-isopropylsulfanyl-pyridin-3-ylmethoxy)-phenyl]-propionic acid]	< 200
CC(C)Sc1ncccc1COc1ccc(CCC(=O)O)c(F)c1 [Example 7, 3-[2-fluoro-4-(2-isopropylsulfanyl-pyridin-3-ylmethoxy)-phenyl]-propionic acid]	< 200
Cc1ccc(COc2c(F)cc(CCC(=O)O)cc2F)c(SC(C)C)n1 [Example 9, 3-[3,5-difluoro-4-(2-isopropylsulfanyl-6-methyl-pyridin-3-ylmethoxy)-phenyl]-propionic acid]	< 200
CCSc1ncccc1COc1c(F)cc(CCC(=O)O)cc1F [Example 10, 3-[4-(2-ethylsulfanyl-pyridin-3-ylmethoxy)-3,5-difluoro-phenyl]-propionic acid]	< 200
CC(C)CSc1ncccc1COc1c(F)cc(CCC(=O)O)cc1F [Example 11, 3-[3,5-difluoro-4-(2-isobutylsulfanyl-pyridin-3-ylmethoxy)-phenyl]-propionic acid]	< 200
CC(C)Sc1ncccc1COc1ccc(CCCC(=O)O)cc1 [Example 13, 4-[4-(2-isopropylsulfanyl-pyridin-3-ylmethoxy)-phenyl]-butyric acid]	< 200
CCCSc1ncccc1COc1c(F)cc(CCC(=O)O)cc1F [Example 14, 3-[3,5-difluoro-4-(2-propylsulfanyl-pyridin-3-ylmethoxy)-phenyl]-propionic acid]	< 200
O=C(O)CCc1cc(F)c(OCc2cccnc2Sc2ccccc2)c(F)c1 [Example 15, 3-[3,5-difluoro-4-(2-phenylsulfanyl-pyridin-3-ylmethoxy)-phenyl]-propionic acid]	200 to 2000
CC(C)(C)Sc1ncccc1COc1c(F)cc(CCC(=O)O)cc1F [Example 16, 3-[4-(2-t-butylsulfanyl-pyridin-3-ylmethoxy)-3,5-difluoro-phenyl]-propionic acid]	< 200
O=C(O)CCc1cc(F)c(OCc2cccnc2SCC2CC2)c(F)c1 [Example 17, 3-[4-(2-cyclopropylmethylsulfanyl-pyridin-3-ylmethoxy)-3,5-difluoro-phenyl]-propionic acid]	< 200

same assay, conditions: CHO-K1 cells expressing Ga16 and hGPR120; Calcium 5 dye fluorescence; numeric value

Compound	EC50 [nM]
O=C(O)C1CC1c1ccc(OCc2cccc(SC3CCC3)n2)c(F)c1 (single isomer, unassigned) [Example 135, 2-[4-(6-cyclobutylsulfanyl-pyridin-2-ylmethoxy)-3-fluoro-phenyl]-cyclopropane carboxylic acid]	27
O=C(O)C1CC1c1ccc(OCc2cccc(SC3CCC3)n2)c(F)c1 (single isomer, unassigned) [Example 167, 2-[4-(6-cyclobutylsulfanyl-pyridin-2-ylmethoxy)-3-fluoro-phenyl]-cyclopropane carboxylic acid]	6
O=C(O)CCc1cc(F)c(OCc2cccnc2SC2CCCC2)c(F)c1 [Example 12, 3-[4-(2-cyclopentylsulfanyl-pyridin-3-ylmethoxy)-3,5-difluoro-phenyl]-propionic acid]	58
